Values joined by “and” are separate entries in the source; they are usually repeats but may differ in a detail not shown here. Equal values may be shown once. “Also recorded” adds a separate entry of the source. Read-outs that look alike come from different tables or passages of the source. Each block holds one molecule with its values, some of them ahead of it.
Key:
[1] = test system: human induced pluripotent stem cell-derived cardiomyocytes (hiPSC-CM); assay: Action potential recordings in hiPSC-CM with voltage sensitive dye (FluoVolt, CellOPTIQ); assay type: cell-based; settings: for Triangulation effect: 10 times typical concentrations; for Electrical activity of the cells: highest concentrations (100 times typical); for Depolarisation (phase 0) measured by TRise: increasing concentrations; for Early and medium repolarisation (APD30 and APD50): intermediate concentrations; for Triangulation (APD90-APD30) effect: low concentrations; for Late repolarisation: lowest tested concentrations
Protocol: Cryopreserved human induced pluripotent stem cell-derived cardiomyocytes (hiPSC-CM): CDI iCell cardiomycytes^2 01434 CardioTox Kit (Catalog #: R1222, FujiFilm CDI, Madison, WI) were kept in liquid nitrogen until culture according to instructions by the manufacturer. […] All studies were conducted at Clyde Biosciences (Glasgow, Scotland). Cells were cultured in 96-well glass-bottomed plates (MatTek, Ashland, Massachusetts) coated with fibronectin ([…] in PBS supplemented with Ca2+ and Mg2+) (Sigma, St. Louis, Missouri) in a humidified incubator at 37 °C for 3 h. The cell density was 50,000 cells/cm2 (25,000 cells/well). The subsequent maintenance protocols followed manufacturer's instructions using their maintenance medial (FujiFilm CDI Cardiomyocytes Maintenance Media). Experiments were performed between days 4–8. Prior to beginning an experiment, cells were washed in serum-free media (SF media), specifically DMEM (Gibco, ThermoFisher Scientific, UK) supplemented with 10 mM galactose and 10 mM sodium pyruvate.
hiPSC-CM were loaded with 5 μM FluoVolt (ThermoFisher) and the multiwell plate was placed in the CellOPTIQ platform (at Clyde Biosciences Ltd, Glasgow, Scotland). The FluoVolt fluorescence signal was recorded using a 40 × (NA 0.6) objective lens. Excitation wavelength was 480 ± 10 nm, and emitted light was collected by a photomultiplier (PMT) at 510–560 nm. Drugs were supplied by Santa Cruz Biotechnology (Germany) and Toronto Research Chemicals (Canada). Their identity and concentration were blinded from the laboratory personnel. […] 30 min after exposure to the tested drug or vehicle a 20 s recording was taken. Offline analysis was performed using proprietary software (CellOPTIQ®). The following (averaged) parameters were obtained from the AP recordings of 4 independent replicates: cycle length (CL, […]); rise time (Trise, ms) between 10 and 90% of the AP amplitude, and AP durations (APD, ms) from 10% to 90% repolarization at 10% intervals. In this study rate-correction was based on previous studies.[14]
Drugs were tested at 3 concentrations with matched vehicle controls for each concentration. The chosen escitalopram (S-citalopram) concentration was 60 nM. Assuming no protein binding in the in vitro model, this corresponds to a total serum concentration of 136 nM, as escitalopram protein binding is reported at 55–56% (most commonly 56%, which is used in the present study).[15], [16], [17] […] This could vary with age and clinical conditions.[20] […] In a large therapeutic drug monitoring (TDM) study 60 nM was the average total concentration in patients with normal escitalopram metabolism through CYP2C19, and 136 nM was below the average total concentration in poor metabolizers.[7] After administration of racemic citalopram, R-citalopram is reported to be 3 times higher than S-citalopram in a publication by Ji et al.[22] The typical concentration of R-citalopram as well as the S-/R-demethylcitalopram and S-/R-didemethylcitalopram metabolites, were calculated according to ratios from their paper.[22]
Shapiro Wilk tests were used to determine whether the data in this study were normally distributed based on a least-squares fit to a normal function, while Brown–Forsythe test was used to verify homogeneity of variance (Origin version 9, OriginLab Corp., Northampton, Massachusetts). […] Statistical tests were made using a paired t-tests for differences between absolute values, with P-values adjusted for multiple comparisons using the Benjamini-Hochberg procedure (one-way ANOVA). The relationship between AP duration at 90% of repolarization (APD90) and CL or diastolic interval was fit to single or double exponential functions (Origin version 9).

[2] = cited from earlier work
[3] = cited from earlier work; remark: listed apart in the source
[4] = Therapeutic drug monitoring (TDM) serum concentrations in patients; settings: for Serum concentration, 10% percentile / Serum concentration, 25% percentile / Serum concentration, 50% percentile / Serum concentration, 75% percentile / Serum concentration, 90% percentile / Serum concentration, maximum / Serum concentration, minimum: trough; for Serum concentration, mean: trough (10-28 h after dose)
Source text: (§1) Information regarding age, sex, daily dose and time between last dose and blood sampling was also collected from the database. For patients with multiple TDM measurements, only the last measurement was included. Included patients were divided into four subgroups based on age: (a) < 18, (b) 18–64, (c) 65–80, and (d) > 80 years.
(§2) Measured serum concentrations represent total concentrations, i.e. the sum of bound and unbound drug.
(§3) All patients were included unless they met the exclusion criteria. Exclusion criteria were: (a) serum concentration of citalopram, escitalopram and/or demethylcitalopram outside the limits of quantification (LOQ), (b) blood sampling not performed at trough levels, outside the time interval of 10–28 h after last dose intake, (c) prescribed dose of citalopram or escitalopram less/more than 2.5–80 mg or 2.5–60 mg, respectively, and (d) detection of interacting drugs in the citalopram/escitalopram serum sample. In detail, we screened the samples for CYP2C19 inducers carbamazepine, phenobarbital and phenytoin and the CYP2C19 or –2D6 inhibitors bupropion, fluoxetine, fluvoxamine, paroxetine or levomepromazine.
(§4) Differences in absolute serum concentrations of citalopram, escitalopram and metabolites as well as differences in time between last blood sampling and daily dose was investigated across the age subgroups using Kruskal Wallis test followed by Dunn's test. P-values were Bonferroni corrected by multiplying the P-value by the number of statistical analyses that were performed.

[5] = design: method as in PMID 19841156; settings: cited from earlier work
[6] = human, in vivo
Source text: as §1, §2, §3, §4

plasma protein = test system: plasma protein; design: method as in PMID 17375980; settings: listed as escitalopram; cited from earlier work
[7] = hiPSC-CM, 10x clinical concentration
[8] = hiPSC-CM, 100x clinical concentration
[9] = hiPSC-CM, all tested concentrations
[10] = hiPSC-CM, clinical concentration

SMILES: CN(C)CCC[C@]1(c2ccc(F)cc2)OCc2cc(C#N)ccc21 [R-citalopram]
- Triangulation effect ([1]; hiPSC-CM): substantial increase
- % Change of cycle length from baseline [1, 7]: -1.96±5.39%
- % Change of cycle length from baseline [1, 8]: Quiescent
- Concentration that increased triangulation (APD90-APD30) of the action potential ([1]; hiPSC-CM, 30 min exposure): 180 nM
- Concentration that reduced medium repolarisation (APD50) ([1]; hiPSC-CM, 30 min exposure): 1800 nM
- Effect on cycle length [1, 9]: not affected
- % Change of cycle length from baseline [1, 10]: 0.99±7.43%
- Electrical activity of the cells ([1]; hiPSC-CM): electrically quiescent
- Depolarisation (phase 0) measured by TRise ([1]; hiPSC-CM): No changes; also recorded: No significant increase
- Early and medium repolarisation (APD30 and APD50) ([1]; hiPSC-CM): shortening
- Triangulation (APD90-APD30) effect ([1]; hiPSC-CM): significantly increased
- Late repolarisation ([1]; hiPSC-CM): prolonged
- Concentration relative to S-citalopram after administration of racemic citalopram [2]: 3 times

SMILES: CNCCC[C@]1(c2ccc(F)cc2)OCc2cc(C#N)ccc21 [R-demethylcitalopram]
- Concentration dependence of triangulation ([1]; hiPSC-CM): dose-dependent increase
- Effect on late repolarisation (APD90) ([1]; hiPSC-CM, 2000 nM): not late repolarisation
- % Change of cycle length from baseline [1, 7]: -9.34±2.21 %
- % Change of cycle length from baseline [1, 8]: -8.55±6.93 %
- Concentration that increased triangulation (APD90-APD30) of the action potential ([1]; hiPSC-CM, 30 min exposure): 2000 nM
- Concentration that reduced early repolarisation (APD30) ([1]; hiPSC-CM, 30 min exposure): 2000 nM
- Effect on cycle length [1, 9]: limited shortening
- % Change of cycle length from baseline [1, 10]: -6.45±4.32 %

SMILES: CN(C)CCCC1(c2ccc(F)cc2)OCc2cc(C#N)ccc21 (stereo not drawn) [Citalopram, citalopram]
- Relative risk for hospitalization due to ventricular arrhythmia ([3]; older patients (mean age 76), Canadian study): 1.53
- Serum concentration, 10% percentile ([4]; citalopram users): 48 nM
- Serum concentration, 25% percentile ([4]; citalopram users): 84 nM
- Serum concentration, 50% percentile ([4]; citalopram users): 133 nM
- Serum concentration, 75% percentile ([4]; citalopram users): 211 nM
- Serum concentration, 90% percentile ([4]; citalopram users): 314 nM
- Serum concentration, maximum ([4]; citalopram users): 733 nM
- Serum concentration, minimum ([4]; citalopram users): 7 nM
- Serum concentration, mean ([4]; citalopram users): 163 nM
- Time of maximum concentration after intake (Tmax) [2]: 3 to 4 h

Further lines, with some results ahead:

- % Change of cycle length from baseline [1, 7]: 9.89±8.49%
- % Change of cycle length from baseline [1, 8]: 0.09±7.78%
- Concentration that increased early repolarisation (APD30) ([1]; hiPSC-CM, 30 min exposure): 15 nM
- Concentration that increased late repolarisation (APD90) ([1]; hiPSC-CM, 30 min exposure): 15 nM
- Concentration that increased medium repolarisation (APD50) ([1]; hiPSC-CM, 30 min exposure): 15 nM
- Concentrations with significant effect on triangulation (APD90-APD30) [1, 9]: No tested concentrations
- Effect on cycle length [1, 9]: not affected
- Effects on medium to late repolarisation ([1]; hiPSC-CM, at concentrations higher than 15 nM): not present
- % Change of cycle length from baseline [1, 10]: 1.42±3.67%
SMILES: N#Cc1ccc2c(c1)CO[C@@]2(CCCN)c1ccc(F)cc1 [S-didemethylcitalopram]
- Cardiotoxic at therapeutic concentrations ([1]; hiPSC-CM): did not find indications

- Triangulation effect ([1]; hiPSC-CM): substantial increase
- % Change of cycle length from baseline [1, 7]: -2.06±5.36%
- % Change of cycle length from baseline [1, 8]: Quiescent
- Concentration that increased late repolarisation (APD90) ([1]; hiPSC-CM, 30 min exposure): 60 nM
- Concentration that increased triangulation (APD90-APD30) of the action potential ([1]; hiPSC-CM, 30 min exposure): 60 nM
- Effect on cycle length [1, 9]: not affected
- % Change of cycle length from baseline [1, 10]: 2.14±4.47%
- Electrical activity of the cells ([1]; hiPSC-CM): electrically quiescent
- Early and medium repolarisation (APD30 and APD50) ([1]; hiPSC-CM): shortening
- Triangulation (APD90-APD30) effect ([1]; hiPSC-CM): significantly increased
- Increase in APD90 ([1]; hiPSC-CM, lowest S-citalopram concentration (60 nM)): 21.9 ms
- Late repolarisation ([1]; hiPSC-CM): prolonged
- Serum concentration, 10% percentile ([4]; escitalopram users): 21 nM
- Serum concentration, 25% percentile ([4]; escitalopram users): 33 nM
- Serum concentration, 50% percentile ([4]; escitalopram users): 52 nM
- Serum concentration, 75% percentile ([4]; escitalopram users): 84 nM
- Serum concentration, 90% percentile ([4]; escitalopram users): 126 nM
- Serum concentration, maximum ([4]; escitalopram users): 730 nM
- Serum concentration, minimum ([4]; escitalopram users): 7 nM
- Serum concentration, mean ([4]; escitalopram users): 66 nM
- % of serum concentrations above 136 nM [6]: 5.4-15.9%
SMILES: CN(C)CCC[C@@]1(c2ccc(F)cc2)OCc2cc(C#N)ccc21 [S-citalopram]
- Clearance, typical value (CLTV) ([5]; CYP2C19 normal/rapid metabolizer): 26.0 L/h
- Clearance, typical value (CLTV) ([5]; CYP2C19 poor/intermediate metabolizer): 19.8 L/h
- Absorption rate constant, typical value (KaTV) ([5]; population PK model): 0.8 h⁻¹
- Volume of distribution, typical value (VTV) ([5]; population PK model): 947 L
- Calculated total serum concentration corresponding to a free concentration of 60 nM (potential pro-arrhythmic activity) ([1]; assuming 56% plasma protein binding): 136 nM
- Depolarisation (phase 0) measured by TRise ([1]; hiPSC-CM): No changes; also recorded: No significant increase
- QTc-prolongation corresponding to the APD90 increase ([1]; lowest S-citalopram concentration, translation per ref 33): 6.2 ms
- FDA-reported QTc-prolongation ([3]; after intake of 20 mg): 6.6 ms
- Plasma protein binding (plasma protein): 55–56% and 56%
- Serum concentrations per dose, patients >65 years versus adults <40 years [2]: 1.4 times
- Average total concentration in CYP2C19 poor metabolizers ([2]; large TDM study): > 136 nM
- Average total concentration in patients with normal escitalopram metabolism through CYP2C19 ([2]; large TDM study): 60 nM
- Time of maximum concentration after intake (Tmax) ([2]; listed as escitalopram): 3 to 4 h and 3.0 ± 1.5 h
